In patent publication US8772287B2, “Pyrimidinyl and 1,3,5-triazinyl benzimidazole sulfonamides and their use in cancer therapy” (VetDC, Inc., priority 2009, dated 2014):
Counter-ions that a name gives are not always drawn. Like-named read-outs stand apart in the source and are kept apart here. Values belong to the molecule of their own block, whether it stands above or below them.

Assays:
NZB5 = experiment: Cellular growth inhibition, NZB5 (3H-thymidine incorporation); type: cell-based, human
Protocol: (§1) The compounds were evaluated against two early passage human cell lines NZB5 and NZOV9 (Marshall et al., Oncol. Res. 2004, 14, 297). The cells were grown in ITS medium (α-modified minimal essential medium supplemented insulin, transferrin, selenite, and 5% fetal bovine serum) and grown on 96-well tissue culture plates under an atmosphere of 5% O2, 5% CO2, and 90% N2. Individual wells contained 500-1,000 cells (depending on the growth rate) in a volume of 150 μL. Compounds were added at 10-fold concentration steps to a maximum of 20 μM and plates were incubated for five days, with ^3H-thymidine being added over the last 6 hrs. Cells were harvested and incorporated radioactivity measured. Duplicate samples were analyzed for each compound dose with multiple control samples.

NZOV9 = experiment: Cellular growth inhibition, NZOV9 (3H-thymidine incorporation); type: cell-based, human
Protocol: as §1

[1] = Homo sapiens, NZB5, read-out: Cell IC50 NZB5
[2] = Homo sapiens, NZOV9, read-out: Cell IC50 NZOV9
[3] = read-out: Cell IC50 NZB5, five days incubation, 3H-thymidine over the last 6 hrs
[4] = read-out: Cell IC50 NZOV9, five days incubation, 3H-thymidine over the last 6 hrs
[5] = Homo sapiens, NZB5, five days incubation, 3H-thymidine over the last 6 hrs, read-out: Cell IC50 NZB5
[6] = Homo sapiens, NZOV9, five days incubation, 3H-thymidine over the last 6 hrs, read-out: Cell IC50 NZOV9

melting point: 201 to 203 °C
Compound: COc1cccc2c1nc(C(F)F)n2-c1nc(N2CCOCC2)nc(N(C)C2CCCN(S(C)(=O)=O)C2)n1 (centres unmarked)

melting point: 255 to 259 °C
Compound: COc1cccc2c1nc(C(F)F)n2-c1nc(OC2CCN(S(=O)(=O)CCN3CCOCC3)CC2)nc(N2CCOCC2)n1 (as salt: hydrochloride) [Example 51, 2-(difluoromethyl)-4-methoxy-1-{4-(4-morpholinyl)-6-[(1-{[2-(4-morpholinyl)ethyl]sulfonyl}-4-piperidinyl)oxy]-1,3,5-triazin-2-yl}-1H-benzimidazole]

melting point: 222 to 225 °C
Compound: COc1cccc2c1nc(C(F)F)n2-c1nc(N2CCOCC2)nc(N(CCCN(C)C)C2CCN(S(=O)(=O)CCl)CC2)n1 (as salt: hydrochloride) [Example 59, N^1-{1-[(chloromethyl)sulfonyl]-4-piperidinyl}-N^1-[4-[2-(difluoromethyl)-4-methoxy-1H-benzimidazol-1-yl]-6-(4-morpholinyl)-1,3,5-triazin-2-yl]-N^3,N^3-dimethyl-1,3-propanediamine]

melting point: 260 to 263 °C
Compound: COc1cccc2c1nc(C(F)F)n2-c1nc(N2CCOCC2)nc(N2CCC(N(CCCN(C)C)S(=O)(=O)CCl)CC2)n1 (as salt: hydrochloride) [Example 60, chloro-N-{1-[4-[2-(difluoromethyl)-4-methoxy-1H-benzimidazol-1-yl]-6-(4-morpholinyl)-1,3,5-triazin-2-yl]-4-piperidinyl}-N-[3-(dimethylamino)propyl]methanesulfonamide]

melting point: 244 to 246 °C
Compound: CN(C)CCS(=O)(=O)N1CCN(c2nc(N3CCOCC3)nc(-n3c(C(F)F)nc4ccccc43)n2)CC1 (as salt: hydrochloride) [Example 83, N-[2-({4-[4-[2-(difluoromethyl)-1H-benzimidazol-1-yl]-6-(4-morpholinyl)-1,3,5-triazin-2-yl]-1-piperazinyl}sulfonyl)ethyl]-N,N-dimethylamine]

melting point: 218 to 220 °C
Compound: COc1cccc2c1nc(C(F)F)n2-c1nc(-c2ccc(NS(=O)(=O)CCN(C)C)cc2)nc(N2CCOCC2)n1 (as salt: methanesulfonate) [Example 74, N-{4-[4-[2-(difluoromethyl)-4-methoxy-1H-benzimidazol-1-yl]-6-(4-morpholinyl)-1,3,5-triazin-2-yl]phenyl}-2-(dimethylamino)ethanesulfonamide]

melting point: 238 °C (dec.)
Compound: COc1cc(N)cc2c1nc(C(F)F)n2-c1nc(N2CCOCC2)nc(N2CCN(S(=O)(=O)CCN(C)C)CC2)n1 (as salt: methanesulfonate) [Example 84, N-[2-({4-[4-[6-amino-2-(difluoromethyl)-4-methoxy-1H-benzimidazol-1-yl]-6-(4-morpholinyl)-1,3,5-triazin-2-yl]-1-piperazinyl}sulfonyl)ethyl]-N,N-dimethylamine]

melting point: 191 to 193 °C
Compound: COc1cccc2c1nc(C(F)F)n2-c1nc(N2CCOCC2)c2cnn(C3CCN(S(=O)(=O)CCN(C)C)CC3)c2n1 (as salt: methanesulfonate) [Example 99, N-[2-({4-[6-[2-(difluoromethyl)-4-methoxy-1H-benzimidazol-1-yl]-4-(4-morpholinyl)-1H-pyrazolo[3,4-d]pyrimidin-1-yl]-1-piperidinyl}sulfonyl)ethyl]-N,N-dimethylamine]

Further lines, the molecule ahead of its results:

Compound: COc1cccc2c1nc(C(F)F)n2-c1nc(-c2ccc(N(C)S(=O)(=O)CCN(C)C)cc2)nc(N2CCOCC2)n1 (as salt: methanesulfonate) [Example 75, N-{4-[4-[2-(difluoromethyl)-4-methoxy-1H-benzimidazol-1-yl]-6-(4-morpholinyl)-1,3,5-triazin-2-yl]phenyl}-2-(dimethylamino)-N-methylethanesulfonamide]
melting point: 218 to 220 °C

Compound: COc1cccc2c1nc(C(F)F)n2-c1nc(-c2ccc(S(=O)(=O)N3CCN(C)CC3)cc2)nc(N2CCOCC2)n1 (as salt: methanesulfonate) [Example 95, 2-(difluoromethyl)-4-methoxy-1-[4-{4-[(4-methyl-1-piperazinyl)sulfonyl]phenyl}-6-(4-morpholinyl)-1,3,5-triazin-2-yl]-1H-benzimidazole]
melting point: 289 to 292 °C

Compound: COc1cccc2c1nc(C(F)F)n2-c1nc(N2CCOCC2)nc(N2CCC(NS(C)(=O)=O)C2)n1 (stereo in doubt) [Example 36, N-{(3R)-1-[4-[2-(difluoromethyl)-4-methoxy-1H-benzimidazol-1-yl]-6-(4-morpholinyl)-1,3,5-triazin-2-yl]pyrrolidinyl}methanesulfonamide]
IC50 (NZB5; [1]): 100 to 1000 nM | melting point: 290 to 292 °C | IC50 (NZOV9; [2]): < 100 nM

Compound: COc1cccc2c1nc(C(F)F)n2-c1nc(N2CCOCC2)nc(N2CCCC(NS(=O)(=O)CCl)C2)n1 (stereo in doubt) [Example 62, chloro-N-{(3S)-1-[4-[2-(difluoromethyl)-4-methoxy-1H-benzimidazol-1-yl]-6-(4-morpholinyl)-1,3,5-triazin-2-yl]-3-piperidinyl}methanesulfonamide]
melting point: 166 to 168 °C

Compound: COc1cccc2c1nc(C(F)F)n2-c1nc(N[C@H]2CCN(S(C)(=O)=O)C2)nc(N2CCOCC2)n1 [Example 34, 4-[2-(difluoromethyl)-4-methoxy-1H-benzimidazol-1-yl]-N-[(3S)-1-(methylsulfonyl)pyrrolidinyl]-6-(4-morpholinyl)-1,3,5-triazin-2-amine]
IC50 (NZB5; [3]): 100 to 1000 nM | IC50 (NZOV9; [4]): < 100 nM

Compound: COc1cccc2c1nc(C(F)F)n2-c1nc(N2CCOCC2)nc(N(C)[C@H]2CCN(S(C)(=O)=O)C2)n1 [Example 35, 4-[2-(difluoromethyl)-4-methoxy-1H-benzimidazol-1-yl]-N-methyl-N-[(3S)-1-(methylsulfonyl)pyrrolidinyl]-6-(4-morpholinyl)-1,3,5-triazin-2-amine]
IC50 (NZB5; [3]): < 100 nM | IC50 (NZOV9; [4]): < 100 nM

Compound: COc1cccc2c1nc(C(F)F)n2-c1nc(OC2CCN(S(=O)(=O)CCN3CCOCC3)CC2)nc(N2CCOCC2)n1 [Example 51, 2-(difluoromethyl)-4-methoxy-1-{4-(4-morpholinyl)-6-[(1-{[2-(4-morpholinyl)ethyl]sulfonyl}-4-piperidinyl)oxy]-1,3,5-triazin-2-yl}-1H-benzimidazole]
IC50 (NZB5; [5]): > 1000 nM | IC50 (NZOV9; [6]): 100 to 1000 nM

Compound: COc1cccc2c1nc(C(F)F)n2-c1nc(N[C@H]2CC[C@@H](NS(C)(=O)=O)CC2)nc(N2CCOCC2)n1 [Example 79, cis-N-(4-{[4-[2-(difluoromethyl)-4-methoxy-1H-benzimidazol-1-yl]-6-(4-morpholinyl)-1,3,5-triazin-2-yl]amino}cyclohexyl)methanesulfonamide]
IC50 (NZB5; [1]): 100 to 1000 nM | IC50 (NZOV9; [2]): < 100 nM

Compound: COc1cc(N)cc2c1nc(C(F)F)n2-c1nc(N2CCOCC2)nc(N2CCN(S(=O)(=O)CCN(C)C)CC2)n1 [Example 84, N-[2-({4-[4-[6-amino-2-(difluoromethyl)-4-methoxy-1H-benzimidazol-1-yl]-6-(4-morpholinyl)-1,3,5-triazin-2-yl]-1-piperazinyl}sulfonyl)ethyl]-N,N-dimethylamine]
IC50 (NZB5; [5]): < 100 nM | IC50 (NZOV9; [6]): > 1000 nM

Compound: COc1cccc2c1nc(C(F)F)n2-c1nc(N2CCOCC2)c2cnn(C3CCN(S(=O)(=O)CCN(C)C)CC3)c2n1 [Example 99, N-[2-({4-[6-[2-(difluoromethyl)-4-methoxy-1H-benzimidazol-1-yl]-4-(4-morpholinyl)-1H-pyrazolo[3,4-d]pyrimidin-1-yl]-1-piperidinyl}sulfonyl)ethyl]-N,N-dimethylamine]
IC50 (NZB5; [5]): < 100 nM | IC50 (NZOV9; [6]): < 100 nM
